Experimental data as given in US8198273B2, “Compounds and methods for kinase modulation, and indications therefor” (Plexxikon Inc., priority 2009, dated 2012).

How the values were obtained:
B-Raf = B-Raf (Homo sapiens, UniProt P15056); test: B-Raf biochemical kinase inhibition (AlphaScreen, biotin-MEK1 substrate); settings: 100 μM ATP
In short: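 Serial 1:3 dilutions of compound (0.1 mM DMSO stock, eight points) were added first, then ATP to start the reaction at 100 μM final.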

CYP3A4(BFC) = CYP3A4(BFC) (Homo sapiens, UniProt P08684); test: CYP3A4(BFC) inhibition (fluorescent substrate); format: in vitro ADME; settings: read-out: Cyp IC50 3A4(BFC)
In short: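 Compound, from a 100 mM DMSO stock and diluted 1:1 over 10 points in co-factor mix, was incubated at 37° C with enzyme and a known substrate. Decrease in fluorescent product against concentration gave the IC50.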

[1] = Relative solubility by turbidity in aqueous buffers of varying pH; format: physicochemical; settings: for turbidity threshold (L, M, H) 7.4: HEPES pH 7.4; for turbidity threshold (L, M, H) 4.5: SIF pH 4.5; for turbidity threshold (L, M, H) 6.8: SIF pH 6.8; for turbidity threshold (L, M, H) 1.4: buffer pH 1.4 (SGF)
In short: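 Turbidity endpoint: concentration where optical density at 490, 535 and 650 nm exceeds 0.01, three-wavelength average used. Buffers at pH 1.5, 4.5, 6.8 and 7.4; DMSO serial dilutions of 25 mM stock spiked 1 μL into 99 μL buffer. Low <31.3, moderate 31.3–250, high >250 μM.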

Chain of B-Raf (P15056 whole entry): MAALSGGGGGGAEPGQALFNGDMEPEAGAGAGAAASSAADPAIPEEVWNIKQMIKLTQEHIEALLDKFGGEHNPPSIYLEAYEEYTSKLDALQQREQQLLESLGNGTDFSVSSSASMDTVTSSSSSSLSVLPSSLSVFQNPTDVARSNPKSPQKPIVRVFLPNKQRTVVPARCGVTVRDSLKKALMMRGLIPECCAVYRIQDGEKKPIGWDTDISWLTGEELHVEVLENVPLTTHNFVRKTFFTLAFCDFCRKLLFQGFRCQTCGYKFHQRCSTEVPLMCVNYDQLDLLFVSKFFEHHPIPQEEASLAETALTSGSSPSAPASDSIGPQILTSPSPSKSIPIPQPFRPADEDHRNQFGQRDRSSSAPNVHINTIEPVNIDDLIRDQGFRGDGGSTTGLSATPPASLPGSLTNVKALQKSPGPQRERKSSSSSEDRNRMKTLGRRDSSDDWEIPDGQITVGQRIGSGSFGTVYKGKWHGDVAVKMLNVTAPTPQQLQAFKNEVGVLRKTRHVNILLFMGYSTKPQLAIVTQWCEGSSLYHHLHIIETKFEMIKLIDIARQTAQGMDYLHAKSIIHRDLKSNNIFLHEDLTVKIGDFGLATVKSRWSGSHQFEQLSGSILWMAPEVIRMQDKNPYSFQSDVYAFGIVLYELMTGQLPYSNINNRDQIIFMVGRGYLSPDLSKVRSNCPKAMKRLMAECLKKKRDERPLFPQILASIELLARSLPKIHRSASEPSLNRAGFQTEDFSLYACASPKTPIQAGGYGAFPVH
Chain of CYP3A4(BFC) (P08684 whole entry): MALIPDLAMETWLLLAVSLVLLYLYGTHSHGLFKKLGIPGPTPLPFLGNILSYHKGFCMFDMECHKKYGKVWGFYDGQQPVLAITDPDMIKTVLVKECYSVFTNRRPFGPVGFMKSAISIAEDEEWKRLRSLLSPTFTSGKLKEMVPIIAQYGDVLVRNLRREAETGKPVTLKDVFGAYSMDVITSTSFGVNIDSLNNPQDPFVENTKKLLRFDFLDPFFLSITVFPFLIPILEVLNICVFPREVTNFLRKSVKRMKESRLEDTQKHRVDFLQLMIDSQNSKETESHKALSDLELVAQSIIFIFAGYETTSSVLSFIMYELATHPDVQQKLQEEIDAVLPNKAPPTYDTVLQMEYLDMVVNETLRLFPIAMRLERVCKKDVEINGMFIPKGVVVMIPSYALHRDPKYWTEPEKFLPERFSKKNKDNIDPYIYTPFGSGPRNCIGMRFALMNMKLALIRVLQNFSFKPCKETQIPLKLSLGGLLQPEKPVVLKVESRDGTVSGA

| Compound | IC50 (B-Raf) [µM] | IC50 (CYP3A4(BFC)) [µM] | turbidity threshold (L, M, H) 7.4 [1] | turbidity threshold (L, M, H) 4.5 [1] | turbidity threshold (L, M, H) 6.8 [1] | turbidity threshold (L, M, H) 1.4 [1] |
| --- | --- | --- | --- | --- | --- | --- |
| COc1ncc(-c2cnc3[nH]cc(C(=O)c4c(F)ccc(NS(=O)(=O)c5c(F)cccc5F)c4F)c3c2)cn1 [P-2043, N-{2,4-Difluoro-3-[5-(2-methoxy-pyrimidin-5-yl)-1H-pyrrolo[2,3-b]pyridine-3-carbonyl]-phenyl}-2,6-difluoro-benzenesulfonamide] | < 0.01 | > 10 | M (moderate solubility if the threshold concentration is 31.3 μM to 250 μM) | L (low solubility if the threshold concentration is <31.3 04) | L (low solubility if the threshold concentration is <31.3 04) | L (low solubility if the threshold concentration is <31.3 04) |
| CCCS(=O)(=O)Nc1ccc(F)c(C(=O)c2c[nH]c3ncc(-c4ccc(S(=O)(=O)N(C)C)cc4)cc23)c1F [P-2185, 4-{3-[2,6-Difluoro-3-(propane-1-sulfonylamino)-benzoyl]-1H-pyrrolo[2,3-b]pyridin-5-yl}-N,N-dimethyl-benzenesulfonamide] | < 0.01 | > 10 | L (low solubility if the threshold concentration is <31.3 04) | L (low solubility if the threshold concentration is <31.3 04) | L (low solubility if the threshold concentration is <31.3 04) | L (low solubility if the threshold concentration is <31.3 04) |
| COc1ncc(-c2cnc3[nH]cc(C(=O)c4c(F)ccc(NS(=O)(=O)c5ccccc5F)c4F)c3c2)cn1 [P-2041, N-{2,4-Difluoro-3-[5-(2-methoxy-pyrimidin-5-yl)-1H-pyrrolo[2,3-b]pyridine-3-carbonyl]-phenyl}-2-fluoro-benzenesulfonamide] | < 0.01 | > 10 | L (low solubility if the threshold concentration is <31.3 04) | L (low solubility if the threshold concentration is <31.3 04) | L (low solubility if the threshold concentration is <31.3 04) | L (low solubility if the threshold concentration is <31.3 04) |
| N#Cc1cnc2[nH]cc(C(=O)c3cccc(NS(=O)(=O)c4ccccc4F)c3F)c2c1 [P-2051, N-[3-(5-Cyano-1H-pyrrolo[2,3-b]pyridine-3-carbonyl)-2-fluoro-phenyl]-2-fluoro-benzenesulfonamide] | < 0.1 | > 10 | M (moderate solubility if the threshold concentration is 31.3 μM to 250 μM) | M (moderate solubility if the threshold concentration is 31.3 μM to 250 μM) | M (moderate solubility if the threshold concentration is 31.3 μM to 250 μM) | M (moderate solubility if the threshold concentration is 31.3 μM to 250 μM) |
| CCCS(=O)(=O)Nc1ccc(F)c(C(=O)c2c[nH]c3ncc(-c4ccc(S(=O)(=O)N5CCOCC5)cc4)cc23)c1F [P-2166, Propane-1-sulfonic acid (2,4-difluoro-3-{5-[4-(morpholine-4-sulfonyl)-phenyl]-1H-pyrrolo[2,3-b]pyridine-3-carbonyl}-phenyl)-amide] | < 0.01 | > 10 | L (low solubility if the threshold concentration is <31.3 04) | L (low solubility if the threshold concentration is <31.3 04) | L (low solubility if the threshold concentration is <31.3 04) | L (low solubility if the threshold concentration is <31.3 04) |
| N#Cc1cnc2[nH]cc(C(=O)c3cccc(NS(=O)(=O)c4cc(F)ccc4F)c3F)c2c1 [P-2052, N-[3-(5-Cyano-1H-pyrrolo[2,3-b]pyridine-3-carbonyl)-2-fluoro-phenyl]-2,5-difluoro-benzenesulfonamide] | < 0.1 | 5 to 10 | M (moderate solubility if the threshold concentration is 31.3 μM to 250 μM) | L (low solubility if the threshold concentration is <31.3 04) | M (moderate solubility if the threshold concentration is 31.3 μM to 250 μM) | L (low solubility if the threshold concentration is <31.3 04) |

The next lines start with results.

| IC50 (B-Raf) [µM] | IC50 (CYP3A4(BFC)) [µM] | Compound | turbidity threshold (L, M, H) 7.4 [1] | turbidity threshold (L, M, H) 4.5 [1] | turbidity threshold (L, M, H) 6.8 [1] | turbidity threshold (L, M, H) 1.4 [1] |
| --- | --- | --- | --- | --- | --- | --- |
| < 0.01 | > 10 | CCCS(=O)(=O)Nc1ccc(F)c(C(=O)c2c[nH]c3ncc(-c4cnc(N5CCOCC5)nc4)cc23)c1F [P-2197, Propane-1-sulfonic acid {2,4-difluoro-3-[5-(2-morpholin-4-yl-pyrimidin-5-yl)-1H-pyrrolo[2,3-b]pyridine-3-carbonyl]-phenyl}-amide] | L (low solubility if the threshold concentration is <31.3 04) | L (low solubility if the threshold concentration is <31.3 04) | L (low solubility if the threshold concentration is <31.3 04) | M (moderate solubility if the threshold concentration is 31.3 μM to 250 μM) |
| < 0.01 | > 10 | CCCS(=O)(=O)Nc1ccc(F)c(C(=O)c2c[nH]c3ncc(-c4ccc(C#CCN(CC)CC)nc4)cc23)c1F [P-2222, Propane-1-sulfonic acid (3-{5-[6-(3-diethylamino-prop-1-ynyl)-pyridin-3-yl]-1H-pyrrolo[2,3-b]pyridine-3-carbonyl}-2,4-difluoro-phenyl)-amide] | L (low solubility if the threshold concentration is <31.3 04) | L (low solubility if the threshold concentration is <31.3 04) | L (low solubility if the threshold concentration is <31.3 04) | L (low solubility if the threshold concentration is <31.3 04) |
| < 0.01 | > 10 | CCCS(=O)(=O)Nc1ccc(F)c(C(=O)c2c[nH]c3ncc(-c4ccc(C)nc4)cc23)c1F [P-2213, Propane-1-sulfonic acid {2,4-difluoro-3-[5-(6-methyl-pyridin-3-yl)-1H-pyrrolo[2,3-b]pyridine-3-carbonyl]-phenyl}-amide] | L (low solubility if the threshold concentration is <31.3 04) | M (moderate solubility if the threshold concentration is 31.3 μM to 250 μM) | L (low solubility if the threshold concentration is <31.3 04) | H (high solubility if the threshold concentration is >250 μM) |
| < 0.01 | 5 to 10 | CCCS(=O)(=O)Nc1ccc(F)c(C(=O)c2c[nH]c3ncc(-c4ccc(NC(C)=O)nc4)cc23)c1F [P-2193, N-(5-{3-[2,6-Difluoro-3-(propane-1-sulfonylamino)-benzoyl]-1H-pyrrolo[2,3-b]pyridin-5-yl}-pyridin-2-yl)-acetamide] | L (low solubility if the threshold concentration is <31.3 04) | L (low solubility if the threshold concentration is <31.3 04) | L (low solubility if the threshold concentration is <31.3 04) | M (moderate solubility if the threshold concentration is 31.3 μM to 250 μM) |
